Where a name gives a salt, the structure may show the parent alone. Read-outs that look alike come from different tables or passages of the source.

The assay relates to cultured human mast cells (CHMC). Description: CHMC low cell density IgE activation: tryptase assay. The format is cell-based. The note with it: IgE activation. As to the method:
Inhibition of degranulation was measured at both low and high cell density by quantifying the release of the granule specific factors tryptase, histamine and hexosaminidase. Inhibition of release and/or synthesis of lipid mediators was assessed by measuring the release of leukotriene LTC4 and inhibition of release and/or synthesis of cytokines was monitored by quantifying TNF-α, IL-6 and IL-13. Tryptase and hexosaminidase were quantified using fluorogenic substrates as described in their respective examples. […] The protocols of the various assays are provided below.
Pellet CHMC cells (980 rpm, 10 min) and resuspend in pre-warmed MT. Add 65 ul of cells to each 96-well plate. Depending on the degranulation activity for each particular CHMC donor, load 1000-1500 cells/well. Mix four times followed by a 1 hr incubation at 37° C. […] Stimulate cells by adding 25 ul of 6× anti-IgE solution to the appropriate plates. Add 25 ul MT to un-stimulated control wells. Mix twice following addition of the anti-IgE. Incubate at 37° C. for 30 minutes. […] Spin plates at 1000 rpm for 10 min to pellet cells. Transfer 25 ul of supernatant to a 96-well black bottom plate and add 100 ul of freshly diluted tryptase substrate solution to each well. Incubate plates at room temperature for 30 min.

The mark [1] stands for this setting: low cell density, 3 pt, read-out: LD Tryptase, CHMC, IgE, 3 pt.
[2] abbreviates: low cell density, 8 pt, read-out: LD Tryptase, CHMC, IgE, 8 pt.
[3] abbreviates: Homo sapiens, Mast cell, low cell density CHMC, tryptase, 3 pt, read-out: LD Tryptase, CHMC, IgE, 3 pt.
Where [4] appears, read: Homo sapiens, Mast cell, low cell density CHMC, tryptase release, 3 pt, read-out: LD Tryptase, CHMC, IgE, 3 pt.
Where [5] appears, read: Homo sapiens, Mast cell, low cell density CHMC, tryptase release, 8 pt, read-out: LD Tryptase, CHMC, IgE, 8 pt.
The mark [6] stands for this setting: Homo sapiens, Mast cell, low cell density, 3 pt, read-out: LD Tryptase, CHMC, IgE, 3 pt.
Where [7] appears, read: Homo sapiens, Mast cell, low cell density, 8 pt, read-out: LD Tryptase, CHMC, IgE, 8 pt.
Setting [8] is: low cell density CHMC, tryptase release, 3 pt, read-out: LD Tryptase, CHMC, IgE, 3 pt.
Where [9] appears, read: Homo sapiens, Mast cell, low cell density CHMC, tryptase, 8 pt, read-out: LD Tryptase, CHMC, IgE, 8 pt.
Setting [10] is: low cell density CHMC, tryptase release, 8 pt, read-out: LD Tryptase, CHMC, IgE, 8 pt.
Where [11] appears, read: low cell density CHMC, tryptase, 8 pt, read-out: LD Tryptase, CHMC, IgE, 8 pt.

On to “N4-[3,4- (Difluoromethylenedioxy)phenyl]-N2- (3,5-dimethylphenyl)-5-fluoro-2,4-pyrimidinediamine [Compound 563]”, for which the IC50 was below 10 µM under setting [1] and below 10 µM under setting [2].

For `CC(C)Nc1nc(Nc2ccc(N3CCN(C)CC3)c(C(F)(F)F)c2)ncc1F` [Compound 1210], the IC50 under setting [3] is below 10 µM.

In the case of `COc1cc(C)c(Nc2ncc(F)c(Nc3ccc4c(c3)NC(=O)[C@@H](C)O4)n2)cc1Cl` [Compound 213], the IC50 under setting [4] is below 10 µM and the IC50 under setting [5] was below 10 µM. In the case of `Fc1cnc(Nc2ccc3cnn(CC4CCCCC4)c3c2)nc1Nc1ccc(Cl)c(Cl)c1` [Compound 723, N2-[1-(Cyclohexylmethyl)indazol-6-yl]-N4-(3,4-dichlorophenyl)-5-fluoro-2,4-pyrimidinediamine], the IC50 under setting [3] was above 10 µM. Turning to `COc1c(Cl)cc(Nc2nc(Nc3cc(Cl)c(O)c(Cl)c3)ncc2F)cc1Cl` [Compound 548], the IC50 reads like this: under setting [6], below 10 µM; under setting [7], below 10 µM. Regarding `CC1(C)C(=O)Nc2cc(Nc3nc(Cl)ncc3F)ccc2S1(=O)=O` [Compound 318, N2-Chloro-N4-(2,2-dimethyl-1,1,3-trioxo-4H-benzo[1,4]thiazin-6-yl)-5-fluoro-4-pyrimidineamine], under setting [8], the IC50 was below 10 µM. On to `CCN1CCN(c2ccc(Nc3ncc(F)c(NC(C)C)n3)cn2)CC1` [Compound 1234], for which the IC50 under setting [3] is below 10 µM. As to `CCCn1ncc2cc(Nc3ncc(F)c(Nc4ccc(OC)c(Cl)c4)n3)ccc21` [Compound 702, N4-(3-Chloro-4-methoxyphenyl)-5-fluoro-N2-(1-n-propylindazol-5-yl)-2,4-pyrimidinediamine], the IC50 under setting [9] was below 10 µM. On to `CC(C)Nc1nc(Nc2cccc(N3CCN(C)CC3)c2)ncc1F` [Compound 1214], for which the IC50 under setting [3] was above 10 µM. With `COC(=O)c1ccc(Nc2ncc(F)c(Nc3ccc4c(c3)NC(=O)[C@@H](C)O4)n2)cc1` [Compound 1266], the IC50 under setting [9] is below 10 µM. Regarding `CC1(C)Oc2ccc(Nc3nc(Nc4ccc5c(cnn5CCCN)c4)ncc3F)cc2NC1=O` [Compound 825, N2-[1-(3-Aminopropyl)indazol-5-yl]-N4-(2,2-dimethyl-3-oxo-4H-benz[1,4]oxazin-6-yl)-5-fluoro-2,4-pyrimidinediamine], under setting [5], the IC50 was below 10 µM. With `CN1CCN(c2ccc(Nc3ncc(F)c(NC(C)(C)C)n3)cc2C(F)(F)F)CC1` [Compound 1233], under setting [3], the IC50 was below 10 µM. Take `CCCCn1ncc2ccc(Nc3ncc(F)c(Nc4ccc(Cl)c(Cl)c4)n3)cc21` [Compound 715, N2-(1-n-Butylindazol-6-yl)-N4-(3,4-dichlorophenyl)-5-fluoro-2,4-pyrimidinediamine]: the IC50 under setting [3] is below 10 µM. In the case of `C[C@@H]1Oc2ccc(Nc3nc(Nc4ccc5c(cnn5CCCN5C(=O)CCC5=O)c4)ncc3F)cc2NC1=O` [Compound 856, (S)-5-Fluoro-N4-(2-methyl-3-oxo-2H,4H-benz[1,4]oxazin-6-yl)-N2-[1-[3-(N-succinimidopropyl)]indazol-5-yl]-2,4-pyrimidinediamine], the IC50 runs as follows: under setting [8], below 10 µM; under setting [10], below 10 µM. Take `CCOC(=O)C(C)(C)Oc1ccc(Nc2nc(Nc3cc(OC)cc(OC)c3)ncc2F)cc1Cl` [Compound 408, N4-[3-Chloro-4-(ethoxycarbonyl-1,1-dimethylmethyleneoxy)phenyl]-N2-(3,5-dimethoxyphenyl)-5-fluoro-2,4-pyrimidinediamine]: the IC50 under setting [11] was below 10 µM. Turning to `COc1cc(Nc2nc(Nc3cc(Cl)cc(Cl)c3)ncc2F)cc(C(F)(F)F)c1` [Compound 337], the IC50 under setting [4] was below 10 µM.

As to `CC1(C)Oc2ccc(Nc3nc(Nc4ccc5oncc5c4)ncc3F)nc2NC1=O` [Compound 928, N2-(1,2-Benzisoxazol-5-yl)-N4-(2,2-dimethyl-3-oxo-4H-5-pyrido[1,4]oxazin-6-yl)-5-fluoro-2,4-pyrimidinediamine], under setting [2], the IC50 is below 10 µM. For `COc1cc(Nc2ncc(F)c(Nc3ccc4c(n3)N(C)C(=O)C(C)(C)O4)n2)cc(OC)c1OC` [Compound 689, 5-Fluoro-N4-(3-oxo-2,2,4-trimethyl-5-pyrid[1,4]oxazin-6-yl)-N2-(3,4,5-trimethoxyphenyl)-2,4-pyrimidinediamine], the IC50 under setting [11] was below 10 µM. Regarding `CNC(=O)c1ccc(Nc2nc(Nc3ccc4cc[nH]c4c3)ncc2F)cc1Cl` [Compound 485, N4-[3-Chloro-4-(N-methylamino)carbonylphenyl]-5-fluoro-N2-(indol-6-yl)-2,4-pyrimidinediamine], the IC50 is below 10 µM under setting [6] and below 10 µM under setting [7].

`COc1ccc(Nc2ncc(F)c(NCC3COc4ccccc4O3)n2)cc1Cl` (stereo not shown) [Compound 1259, N2-(3-Chloro-4-methoxyphenyl)-N4-[ (2,3-dihydro-1,4-benzodioxan-2-yl)methyl]-5-fluoro-2,4-pyrimidinediamine]: the IC50 (low cell density CHMC, tryptase, 3 pt, read-out: LD Tryptase, CHMC, IgE, 3 pt) is below 10 µM. For `Cc1nc2cc(Nc3ncc(F)c(Nc4ccc5c(c4)NC(=O)C(C)(C)O5)n3)ccc2n1C` [Compound 896], the IC50 under setting [6] was below 10 µM and the IC50 under setting [7] was below 10 µM. For `Cc1cc(Nc2ncc(F)c(NC3CCCCC3)n2)ccc1N1CCN(C)CC1` [Compound 1201], the IC50 is below 10 µM under setting [3] and below 10 µM under setting [9]. Consider `COc1cc(Nc2ncc(F)c(Nc3cccc(OC(F)(F)F)c3)n2)cc(OC)c1` [Compound 324], for which the IC50 under setting [4] was below 10 µM. As to `O=C1c2ccccc2C(=O)N1CCCn1ncc2cc(Nc3ncc(F)c(Nc4ccc(Cl)c(Cl)c4)n3)ccc21` [Compound 816, N4-(3,4-Dichlorophenyl)-5-fluoro-N2-[1-[3-(N-phthalimidopropyl)]indazol-5-yl]-2,4-pyrimidinediamine], the IC50 under setting [10] was above 10 µM.

Regarding `CC(=O)NCCCn1c(C)nc2cc(Nc3ncc(F)c(Nc4ccc5c(n4)NC(=O)C(C)(C)O5)n3)ccc21` [Compound 953, N2-[1-[3-(N-Acetylamino)propyl]-2-methylbenzimidazol-5-yl]-N4-(2,2-Dimethyl-3-oxo-4H-5-pyrido[1,4]oxazin-6-yl)-5-fluoro-2,4-pyrimidinediamine], the IC50 reads like this: under setting [1], below 10 µM; under setting [2], below 10 µM. As for `COc1ccc(Nc2ncc(F)c(Nc3ccc4c(c3)NC(=O)C(C)(C)S4(=O)=O)n2)cc1F` [Compound 297], the IC50 runs as follows: under setting [4], below 10 µM; under setting [5], below 10 µM.

For `COc1ccc(Nc2nc(Nc3ccc4c(c3)nc(C)n4CCCO)ncc2F)cc1Cl` [Compound 948], the IC50 under setting [7] is below 10 µM. As for `COc1cc(Nc2nc(Nc3ccc4c(cnn4CC4CCCCC4)c3)ncc2F)ccc1F` [Compound 721, N2-[1-(Cyclohexylmethyl)indazol-5-yl)-5-fluoro-N4-(4-fluoro-3-methoxyphenyl)-2,4-pyrimidinediamine], under setting [3], the IC50 was below 10 µM.

As to `Cc1cc(Nc2ncc(F)c(NC(C)C)n2)ccc1N1CCN(C)CC1` [Compound 1206], the IC50 runs as follows: under setting [3], below 10 µM; under setting [9], above 10 µM. For `O=S(=O)(NCCCn1ncc2cc(Nc3ncc(F)c(Nc4ccc(Cl)c(Cl)c4)n3)ccc21)C(F)(F)F` [Compound 841, N4-(3,4-Dichlorophenyl)-5-fluoro-N2-[1-[3-(N-trifluoromethylsulfonylamino)propyl]indazol-5-yl]-2,4-pyrimidinediamine], the IC50 under setting [5] was below 10 µM. As for `CC1(C)Oc2ccc(Nc3nc(Nc4ccc5c(cnn5CCCN5C(=O)CCCC5=O)c4)ncc3F)nc2NC1=O` [Compound 862, N4-(2,2-Dimethyl-3-oxo-4H-5-pyrid[1,4]oxazin-6-yl)-N2-[1-[3-(2,6-dioxopiperidino]propyl)indazol-5-yl]-5-fluoro-2,4-pyrimidinediamine], the IC50 under setting [8] is below 10 µM and the IC50 under setting [10] is below 10 µM. As to `COc1ccc(Nc2ncc(F)c(Nc3ccc4c(c3)NC(=O)C(C)(C)O4)n2)cc1Cl` [Compound 378, N2-(3-Chloro-4-methoxyphenyl)-N4-(2,2-dimethyl-3-oxo-4H-benz[1,4]oxazin-6-yl)-5-fluoro-2,4-pyrimidinediamine p-Toluene Sulfonic Acid Salt], the IC50 under setting [9] was below 10 µM. In the case of `CC1(C)Oc2ccc(Nc3nc(Nc4ccc5c(cnn5CCCNS(=O)(=O)C(F)(F)F)c4)ncc3F)nc2NC1=O` [Compound 844, N4-(2,2-Dimethyl-3-oxo-4H-5-pyrid[1,4]oxazin-6-yl)-5-fluoro-N2-[1-[3-(N-trifluoromethylsulfonylamino)propyl]indazol-5-yl]-2,4-pyrimidinediamine], under setting [10], the IC50 is above 10 µM.

Consider `CC1C(=O)Nc2cc(Nc3nc(Nc4ccc5cn[nH]c5c4)ncc3F)ccc2S1(=O)=O` (stereo not shown) [Compound 265], for which the IC50 is, setting by setting: under setting [4], below 10 µM; under setting [5], below 10 µM.

These data come from US20220073536A1 (Rigel Pharmaceuticals, Inc., priority 2003, published 2022).
